Laboratory results reported in patent US20220204473A1, “COMPOUND AS IRAK INHIBITOR” (SHANGHAI MEIYUE BIOTECH DEVELOPMENT CO., LTD., priority 2018, published 2022).

Experiments:
[1] = test system: TNF-α release in LPS-induced Balb/c female mice; assay: Inhibition of TNF-α release in LPS-induced Balb/c female mice; assay type: in vivo, mouse; set-up: concentration or dose not given beside the values; conditions: oral gavage 5 h before LPS induction, serum 1.5 h after stimulation
Protocol: In the normal control groups, the animals received an intraperitoneal injection of normal saline (10 mL/kg) and in the model groups, the animals received LPS stimulation (Sigma CAT #L2630, i.p., 10 mL/kg, 0.2 mg/kg). During the assay, to the test compounds, DMSO, Solutol and 10 mM PBS were sequentially added to prepare a solution or suspension of required concentration for administration. For the vehicle, DMSO, Solutol and 10 mM PBS were mixed in a volume ratio of 5:15:80. In each of the groups, the animals were administered through oral gavage (10 mL/kg) 5 h before LPS (or saline) stimulation at predetermined doses, and euthanized with CO2 at 1.5 h after the stimulation for cardiac blood collection. The whole blood was not anticoagulated, incubated in wet ice for 1.5 h, and centrifuged at 2000×g at 4° C. for 10 min to separate the serum. The serum was frozen at −80° C. for TNF-α assay. Quantification of the TNF-α was done with TNF-α ELISA kit according to the manufacturer's instruction.

[2] = test system: IL-6 release in LPS-induced Balb/c female mice; assay: Inhibition of IL-6 release in LPS-induced Balb/c female mice; assay type: in vivo, mouse; set-up: concentration or dose not given beside the values; conditions: administered 5 h before LPS induction, serum
Protocol: Objective of the test: To determine the inhibitory effect of the compounds by measuring the plasma IL-6 concentration in a Balb/c mouse model with LPS-induced inflammation.
2.1 Prepared mouse serum samples (sample batch no. 20181218)
4.1 Reagent kit was equilibrated at room temperature (25-28° C.) for 20 min. After each detection, the remaining reagents were stored at 4° C.
4.3 Preparing reference standard: 1 vial of reference standard substance was added with labeled volume of reference standard diluent. The mixtures were incubated for 15 min at room temperature. Then the mixtures were gently mixed to completely dissolve the substance to prepare a reference standard stock at a final concentration of 1000 μg/mL.
4.4 Dilution of samples: The sample in each group was diluted by […], i.e., a 2-fold dilution with sample assay buffer followed by another two-fold dilution with standard diluent.
4.5 The diluted samples or standards of different concentrations were added into corresponding wells at 100 μL/well respectively, and a background correcting well (or a blank well) was set by adding only TMB buffer and terminating solution. The wells were sealed with a transparent film and incubated at room temperature for 120 min.
4.6 The plate was subjected to 5 washes, each with 300 μL of washing buffer for 15-30 sec. The plate was dried on thick absorbent paper after the last wash.
4.7 Biotinylated antibody was added at 100 μL/well (Note: the biotinylated antibody was prepared in advance and could be used directly without further dilution). The wells were sealed with a transparent film and incubated at room temperature for 60 min.
4.8 The plate was subjected to 5 washes, each with 300 μL of washing buffer for 15-30 sec. The plate was dried on thick absorbent paper after the last wash.
4.9 Horseradish peroxidase-labeled streptavidin was added at 100 μL/well. The wells were sealed with a white film and incubated away from light at room temperature for 20 min.
4.10 The plate was subjected to 5 washes, each with 300 μL of washing buffer for 15-30 sec. The plate was dried on thick absorbent paper after the last wash.
4.11 The chromogenic reagent TMB was added 100 μL/well. The wells were sealed with a white film and incubated away from light at room temperature for 20 min.
4.12 The terminating solution was added at 50 μL/well and A450 value was measured right after mixing.

human IRAK4 = target: T1, human IRAK4 (Homo sapiens, UniProt Q9NWZ3); assay: IRAK4 MSA (Mobility-Shift Assay) at Km ATP; assay type: biochemical; conditions: GST-IRAK4 1 nM, ATP 37 μM (Km); read-out: IC50 for inhibiting human IRAK4 kinase
T1 construct: purchased Cama (so in the source)
T1 sequence (Q9NWZ3 1-460): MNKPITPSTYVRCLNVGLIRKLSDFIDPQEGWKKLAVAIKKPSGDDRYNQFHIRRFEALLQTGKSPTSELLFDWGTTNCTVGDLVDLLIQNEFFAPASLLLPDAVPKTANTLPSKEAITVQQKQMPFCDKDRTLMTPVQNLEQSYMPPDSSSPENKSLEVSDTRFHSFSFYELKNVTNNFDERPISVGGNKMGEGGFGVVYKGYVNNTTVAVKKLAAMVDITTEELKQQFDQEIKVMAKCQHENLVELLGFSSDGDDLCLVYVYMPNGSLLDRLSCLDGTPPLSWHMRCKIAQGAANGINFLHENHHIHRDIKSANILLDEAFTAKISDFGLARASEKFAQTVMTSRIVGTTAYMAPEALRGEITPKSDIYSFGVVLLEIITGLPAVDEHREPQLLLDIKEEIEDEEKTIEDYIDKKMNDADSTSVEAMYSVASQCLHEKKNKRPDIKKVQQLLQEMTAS
Protocol: A recombinant fusion protein of N-terminal GST (glutathione-S-transferase) and human IRAK4 was used as enzyme (GST-IRAK4, kinase IRAK4 (Cama)) at a final concentration of 1 nM; ATP (Sigma) was at a final concentration of 37 μM; the substrates used for the kinase reaction were a 5-FAM (5-carboxyfluorescein)-labeled polypeptide (5-FAM-[…]-COOH) and a substrate peptide FAM-P8 (GL Biochem) at final concentrations of […].
In this assay, 500 μM solutions of the compounds were prepared in 100% DMSO, and serially 4-fold diluted to the 10th concentration gradient with 100% DMSO, followed by a 10-fold dilution in the compound buffer (50 mM HEPES. pH 7.5, 0.00015% Brij-35) to give intermediate dilutions of the compounds at a final concentration of 10 μM-0.04 nM containing 10% DMSO respectively, 5 μL of the dilutions were transferred into a black 384-well plate respectively.
IRAK4 was diluted to 2.5 nM in the kinase buffer (50 mM HEPES, pH 7.5, 0.00015% Brij-35, 2 mM DTT). 10 μL of the IRAK4 dilution was transferred to the 384-well plate and co-incubated with the compound for 10-15 min.
The substrate and ATP were diluted to 12.5 μM and 92.5 μM with reaction buffer (50 mM HEPES, pH 7.5, 0.00015% Brij-35, 10 mM MgCl2), respectively. 10 μL of the dilutions were transferred to a 384-well plate and incubated at 28° C. for 1 h respectively. The reaction was terminated by adding 25 μL of 50 mM EDTA to the 384-well plate.
The inhibition rates of IRAK4 by the compounds were calculated by measuring the rate of phosphorylated substrate using a Caliper EZ Reader (PerkinElmer) and the IC50 values were calculated by XL-fit software.

CYP2D6 = target: T2, CYP2D6 (Homo sapiens, UniProt P10635); assay: CYP450 inhibition in human liver microsomes, CYP2D6; assay type: in vitro ADME
T2 construct: tissue Corning (USA); host or cells: mixed human liver microsomes
Protocol: (§1) This study was intended to investigate the inhibitory effect of the test compounds on five major CYP450 enzyme subtypes CYP1A2, 2C9, 2C19, 2D6 and 3A4 in human liver microsomes. The mixed human liver microsomes used in this assay were purchased from Corning (USA). The test compounds were co-incubated at 7 concentrations with human liver microsomes and five probe substrates (phenacetin for CYP1a2, diclofenac for CYP2C9, mephenytoin for CYP2C19, dextromethorphan for CYP2D6, midazolam for CYP3A4-M, mixed). The reaction was initiated by adding coenzyme NADPH, and terminated by adding acetonitrile containing internal standard. After the proteins were precipitated, the supernatant was centrifuged. The characteristic metabolites in the supernatant (acetaminophen for CYP1A2, 4-hydroxydiclofenac for CYP2C9, 4-hydroxymephenytoin for CYP2C19, dextrorphan for CYP2D6, 1-hydroxymidazolam for CYP3A4-M) were analyzed by LC-MS/MS. The influence of the test compounds on production of the characteristic metabolites was finally analyzed on the basis of the data obtained. A selective inhibitor (ketoconazole for CYP3A4-M) was used as positive control. All samples were tested in duplicate.

CYP1A2 = target: T3, CYP1A2 (Homo sapiens, UniProt P05177); assay: CYP450 inhibition in human liver microsomes, CYP1A2; assay type: in vitro ADME
T3 construct: tissue Corning (USA); host or cells: mixed human liver microsomes
T3 sequence (P05177 1-516): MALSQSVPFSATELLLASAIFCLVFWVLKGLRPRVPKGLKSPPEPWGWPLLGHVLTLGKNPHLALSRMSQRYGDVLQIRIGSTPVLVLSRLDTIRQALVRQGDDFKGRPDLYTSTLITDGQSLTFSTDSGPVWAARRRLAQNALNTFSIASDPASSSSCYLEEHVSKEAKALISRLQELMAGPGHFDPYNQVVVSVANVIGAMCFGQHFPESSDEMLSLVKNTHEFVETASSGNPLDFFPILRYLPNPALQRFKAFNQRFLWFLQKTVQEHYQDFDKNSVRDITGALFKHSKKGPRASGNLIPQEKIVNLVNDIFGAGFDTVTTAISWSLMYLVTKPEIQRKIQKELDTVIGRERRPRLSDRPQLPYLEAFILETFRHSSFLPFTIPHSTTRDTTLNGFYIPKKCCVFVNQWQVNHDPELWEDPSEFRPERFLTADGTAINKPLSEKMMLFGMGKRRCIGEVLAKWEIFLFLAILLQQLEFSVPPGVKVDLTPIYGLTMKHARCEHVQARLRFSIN
Protocol: as §1

CYP3A4 = target: T4, CYP3A4 (Homo sapiens, UniProt P08684); assay: CYP450 inhibition in human liver microsomes, CYP3A4; assay type: in vitro ADME
T4 construct: tissue Corning (USA); host or cells: mixed human liver microsomes
Protocol: as §1

CYP2C19 = target: T5, CYP2C19 (Homo sapiens, UniProt P33261); assay: CYP450 inhibition in human liver microsomes, CYP2C19; assay type: in vitro ADME
T5 construct: tissue Corning (USA); host or cells: mixed human liver microsomes
Protocol: as §1

CYP2C9 = target: T6, CYP2C9 (Homo sapiens, UniProt P11712); assay: CYP450 inhibition in human liver microsomes, CYP2C9; assay type: in vitro ADME
T6 construct: tissue Corning (USA); host or cells: mixed human liver microsomes
Protocol: as §1

T5 sequence (P33261 whole entry): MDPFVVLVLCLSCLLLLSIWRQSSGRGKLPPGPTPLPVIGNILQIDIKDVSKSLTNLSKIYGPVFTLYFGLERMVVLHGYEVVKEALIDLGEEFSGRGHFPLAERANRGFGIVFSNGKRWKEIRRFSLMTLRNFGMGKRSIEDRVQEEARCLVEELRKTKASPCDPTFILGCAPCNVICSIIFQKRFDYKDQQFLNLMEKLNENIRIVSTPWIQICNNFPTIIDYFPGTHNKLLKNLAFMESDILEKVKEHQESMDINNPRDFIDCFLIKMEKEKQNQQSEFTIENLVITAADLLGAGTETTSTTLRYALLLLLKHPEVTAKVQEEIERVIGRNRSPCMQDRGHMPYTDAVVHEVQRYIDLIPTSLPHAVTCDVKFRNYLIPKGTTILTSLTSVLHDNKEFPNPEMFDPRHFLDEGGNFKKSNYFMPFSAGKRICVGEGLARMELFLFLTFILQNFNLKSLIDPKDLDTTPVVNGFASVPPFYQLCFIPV
T6 sequence (P11712 whole entry): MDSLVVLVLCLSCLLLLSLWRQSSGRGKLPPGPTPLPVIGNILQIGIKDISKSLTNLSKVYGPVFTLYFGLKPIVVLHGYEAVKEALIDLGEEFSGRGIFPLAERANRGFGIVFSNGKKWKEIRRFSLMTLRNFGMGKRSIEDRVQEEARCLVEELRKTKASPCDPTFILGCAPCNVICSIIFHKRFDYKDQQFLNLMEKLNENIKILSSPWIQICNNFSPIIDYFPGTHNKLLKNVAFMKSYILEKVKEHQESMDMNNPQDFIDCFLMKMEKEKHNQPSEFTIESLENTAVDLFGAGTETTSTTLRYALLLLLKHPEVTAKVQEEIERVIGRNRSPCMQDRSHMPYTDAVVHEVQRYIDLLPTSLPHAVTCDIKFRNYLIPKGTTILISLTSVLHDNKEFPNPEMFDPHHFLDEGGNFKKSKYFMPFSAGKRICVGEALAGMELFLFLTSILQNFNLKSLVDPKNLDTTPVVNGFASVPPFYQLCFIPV
T4 sequence (P08684 whole entry): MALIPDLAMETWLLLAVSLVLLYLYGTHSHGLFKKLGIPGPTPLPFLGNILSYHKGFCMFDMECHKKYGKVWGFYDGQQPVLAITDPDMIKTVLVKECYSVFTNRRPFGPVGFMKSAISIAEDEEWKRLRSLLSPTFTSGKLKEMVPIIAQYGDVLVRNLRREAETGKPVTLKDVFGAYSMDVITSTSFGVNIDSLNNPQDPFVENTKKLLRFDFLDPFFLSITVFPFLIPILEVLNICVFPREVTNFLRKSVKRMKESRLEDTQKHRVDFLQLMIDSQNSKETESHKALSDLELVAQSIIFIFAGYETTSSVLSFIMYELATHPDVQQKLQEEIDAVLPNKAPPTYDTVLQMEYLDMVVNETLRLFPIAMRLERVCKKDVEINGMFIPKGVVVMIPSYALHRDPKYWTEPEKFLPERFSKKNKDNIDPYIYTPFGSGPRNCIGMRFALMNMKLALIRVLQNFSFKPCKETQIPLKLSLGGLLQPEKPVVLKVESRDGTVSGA
T2 sequence (P10635 whole entry): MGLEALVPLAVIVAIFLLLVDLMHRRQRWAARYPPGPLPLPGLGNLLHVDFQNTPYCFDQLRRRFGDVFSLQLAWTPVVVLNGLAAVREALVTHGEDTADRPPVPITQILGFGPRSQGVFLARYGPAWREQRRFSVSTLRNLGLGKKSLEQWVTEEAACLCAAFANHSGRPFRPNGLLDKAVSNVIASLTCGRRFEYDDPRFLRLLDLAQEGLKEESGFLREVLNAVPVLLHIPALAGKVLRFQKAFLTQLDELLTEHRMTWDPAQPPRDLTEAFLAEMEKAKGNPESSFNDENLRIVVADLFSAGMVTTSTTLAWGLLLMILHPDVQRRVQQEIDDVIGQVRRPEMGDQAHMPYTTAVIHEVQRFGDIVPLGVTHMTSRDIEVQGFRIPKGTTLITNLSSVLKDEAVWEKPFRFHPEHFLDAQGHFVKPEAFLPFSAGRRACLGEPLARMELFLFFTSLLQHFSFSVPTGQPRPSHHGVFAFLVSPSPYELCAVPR

With `COc1cc2nn([C@H]3C[C@H](C(C)(C)O)C3)cc2cc1NC(=O)c1cccc(C(F)F)n1` [MY-004-115] the “Inhibition rate of TNF-α” value [1] was 89.59%, the “Inhibition rate of IL-6” value [2] was 93.35% and the IC50 (human IRAK4) was 2 nM.
`CC(C)(O)CCn1cc2cc(NC(=O)c3cccc(C(F)(F)F)n3)c(C(C)(C)O)cc2n1` [MYA, reference compound] was tested, and the IC50 (CYP2D6) was over 30 µM, the IC50 (CYP1A2) was 2910 nM and the IC50 (CYP3A4) was over 30 µM. For the same compound, the IC50 (CYP2C19) was 23.5 µM and the IC50 (CYP2C9) was 19.1 µM.
`COc1cc2nn([C@H]3C[C@H](C(C)(C)O)C3)cc2cc1NC(=O)c1cnn2cccnc12` [MY-004-075] was tested, and the “Inhibition rate of TNF-α” value [1] was 90.15%, the “Inhibition rate of IL-6” value [2] was 96.88% and the IC50 (human IRAK4) was 3.6 nM.
